# Laboratory results taken from patent US8314122B2, “Using of organic solvents in wet granulation of moxifloxacin” (Abdi Ibrahim Ilac Sanayi Ve Ticaret Anonim Sirketi, priority 2008, dated 2012).
# Entries after “also recorded” stand apart in the source; their conditions may differ. Counter-ions that a name gives are not always drawn.
# Experiment: Wet granulation of anhydrous moxifloxacin hydrochloride, crystal form checked by X-ray powder diffractogram
# Assay type: physicochemical
# Source text: Using of anhydrous moxifloxacin hydrochloride, of which X-ray powder diffractogram could be seen (FIG. 2), in pharmaceutical formulations provides eligible stability therefore preferred rather than moxifloxacin hydrochloride monohydrate. […] It is not desired and it should be prevented.
# A wet granulation method with an organic solvent or mixtures of organic solvents is describe herein in which the organic solvent or mixtures of organic solvents are selected from isopropyl alcohol (IPA), acetone, ethanol, dichloromethane and mixtures thereof. […] It is not desired to be converted and thence If conversion is not desired, then granulation should not be performed with water or water mixtures. Anhydrous moxifloxacin hydrochloride should not be exposed to water in the preparation stage. The organic solvent is selected from isopropyl alcohol (IPA), acetone, ethanol, dichloromethane or mixtures thereof in the wet granulation method so as to obtain non-convertible formulations (respectively FIG. 4, FIG. 5, FIG. 6, FIG. 7).
# POVIDONE K-30 (polyvinylpyrrolidone) is added to isopropyl alcohol and mixed until the POVIDONE K-30 (polyvinylpyrrolidone) is completely dissolved (Step 1). Moxifloxacin Hydrochloride and Microcrystalline Cellulose are transferred to a granulator and mixed (Step 2). The granulation solution from step 1 is added to the powder mixtures from step 2 and mixed. Wet granules are taken from the granulator to the oven and dried. The granules are sieved. MANNITOL SD 200 (mannitol) and croscarmellose sodium are transferred to the mixtures in the container and mixed. Magnesium stearate is sieved and added to the mixtures in the container and sieved. The blend is tabletted using appropriate punches according to the specifications.
compound,measurement,setting,value
COc1c(N2C[C@@H]3CCCN[C@@H]3C2)c(F)cc2c(=O)c(C(=O)O)cn(C3CC3)c12 [anhydrous moxifloxacin hydrochloride],conversion of anhydrous form to moxifloxacin hydrochloride monohydrate,wet granulation with acetone (FIG. 5),no conversion to moxifloxacin hydrochloride monohydrate
same,conversion of anhydrous form to moxifloxacin hydrochloride monohydrate,wet granulation with dichloromethane (FIG. 7),no conversion to moxifloxacin hydrochloride monohydrate
same,conversion of anhydrous form to moxifloxacin hydrochloride monohydrate,wet granulation with ethanol (FIG. 6),no conversion to moxifloxacin hydrochloride monohydrate
same,conversion of anhydrous form to moxifloxacin hydrochloride monohydrate,wet granulation with isopropyl alcohol (FIG. 4),no conversion
same,conversion of anhydrous form to moxifloxacin hydrochloride monohydrate,"wet granulation with water as wetting agent (FIG. 3), hydrochloride",instantly converted to moxifloxacin hydrochloride monohydrate; also recorded: conversion from anhydrous moxifloxacin hydrochloride to moxifloxacin hydrochloride monohydrate
